According to paper PMC12652692, “Synthesis and In Vitro Anticancer Evaluation of Novel Phosphonium Derivatives of Chrysin” (International Journal of Molecular Sciences, 2025):

Tests used:
Assay in all cases: NCI60 one-dose screen
Type in all cases: cell-based
A549/ATCC = conditions: Homo sapiens, read-out: Growth percent
Description: (§1) The screening results are presented in the Supplementary Materials (Table S1), where the cytotoxicity was determined for the 10 µM concentration. […] The negative numbers indicate significant decreases in the cell number. […] Compared to the reference chrysin (2), all phosphonium hybrids (3a–h) had significant antiproliferative activities. […] At the same time, it should be noted that more than 60% average reduction was also obtained in the case of the other examined conjugates (3a–h).
(§2) A detailed description of the NCI screening procedures, including the one-dose and five-dose tests, can be found in the Supplementary Materials, on the website of NCI [39], and in our previous work.
(§3) A detailed description of the NCI screening procedures can also be found on the website of NCI [39], and in our […]
(§4) All candidates were examined at first at a single high dose (10 μM) in the full NCI60 cell panel. The value reported for the one-dose test is growth relative to the no-drug control and relative to the time zero number of cells. This made possible the disclosure of both growth inhibition (numbers between 0 and 100) and lethality (numbers less than 0). For example, a value of 100 means no growth inhibition. A value of 20 would mean 80% growth inhibition. A value of 0 means no net growth over the course of the analysis. A value of −20 would mean 20% lethality. A value of −100 means all cells are dead. […]
(§5) concentration levels. The human tumor cell lines of the cancer screening panel were grown in RPMI 1640 medium containing 5% fetal bovine serum and 2 mM l-glutamine. Characteristically, cells were injected in 96-well microtiter plates in 0.1 mL at plating densities ranging from 5000 to 40,000 cells/well, depending on the doubling time of individual cell lines. After cell inoculation, the microtiter plates were incubated at 37 °C, 5% carbon dioxide, 95% air, and 100% relative humidity for 24 hours before the addition of tested compounds. After 24 hours, 2 plates of each cell line were fixed in situ with Cl3COOH (TCA), to represent a measurement of the cell population for each cell line at the time of drug addition (tz). Tested compounds were solubilized in DMSO at 400-fold the desired final maximum test concentration and stored frozen before application. In the course of the drug addition, an aliquot of frozen concentrate was thawed and diluted to twice the desired final maximum test concentration with a complete medium containing 50 μg mL−1 gentamicin. Additional four, 10-fold or ½ log serial dilutions were produced to furnish a total of five drug concentrations plus control. Aliquots of 0.1 mL of these different drug dilutions were added to the appropriate microtiter wells already containing 0.1 mL of medium, resulting in the required final drug concentrations.
(§6) Following drug addition, the plates were incubated at 37 °C, 5% carbon dioxide, 95% air, and 100% relative humidity for an additional 48 hours. For adherent cells, the test was finished by the addition of cold Cl3COOH. Cells were fixed in situ by the addition of 50 μL of cold 50% (w/v) Cl3COOH, and incubated at 4 °C for 1 hour. The supernatant was discarded, and the plates were washed with H2O (5×) and dried in air. Sulforhodamine B (SRB) solution (0.1 mL) at 0.4% (w/v) in 1% CH3COOH was added to each well, and plates were incubated at RT for 10 min. After staining, the unbound dye was removed by washing five times with 1% CH3COOH, and the plates were dried in the air. The bound stain is afterward solubilized with a 10 mM trizma base, and the absorbance is read on an automated plate reader at λ = 515 nm. Utilizing the seven absorbance measurements [time zero (tz), control growth (c), and test growth in the presence of the drug at the five concentration levels (ti)], the percentage growth was determined at each of the drug concentration levels. Growth inhibition (%) was calculated as:
(§7) [(ti − tz)/(c − tz)] × 100, for concentrations where ti ≥ tz (1) […]

CCRF-CEM = conditions: Homo sapiens, read-out: Growth percent
Description: as §1, §2, §3, §4, §5, §6, §7

DU-145 = conditions: Homo sapiens; DU-145, 10 μM; read-out: Growth percent
Description: as §1, §2, §3, §4, §5, §6, §7

EKVX = conditions: Homo sapiens, read-out: Growth percent
Description: as §1, §2, §3, §4, §5, §6, §7

HCC-2998 = conditions: Homo sapiens; HCC-2998, 10 μM; read-out: Growth percent
Description: as §1, §2, §3, §4, §5, §6, §7

HCT-116 = conditions: Homo sapiens; HCT-116, 10 μM; read-out: Growth percent
Description: as §1, §2, §3, §4, §5, §6, §7

HL-60(TB) = conditions: Homo sapiens, read-out: Growth percent
Description: as §1, §2, §3, §4, §5, §6, §7

HS 578T = conditions: Homo sapiens, read-out: Growth percent
Description: as §1, §2, §3, §4, §5, §6, §7

LOX IMVI = conditions: Homo sapiens, read-out: Growth percent
Description: as §1, §2, §3, §4, §5, §6, §7

MDA-MB-231/ATCC = conditions: Homo sapiens, read-out: Growth percent
Description: as §1, §2, §3, §4, §5, §6, §7

MDA-MB-435 = conditions: Homo sapiens; MDA-MB-435, 10 μM; read-out: Growth percent
Description: as §1, §2, §3, §4, §5, §6, §7

NCI-H322M = conditions: Homo sapiens, read-out: Growth percent
Description: as §1, §2, §3, §4, §5, §6, §7

NCI/ADR-RES = conditions: Homo sapiens, read-out: Growth percent
Description: as §1, §2, §3, §4, §5, §6, §7

OVCAR-5 = conditions: Homo sapiens; OVCAR-5, 10 μM; read-out: Growth percent
Description: as §1, §2, §3, §4, §5, §6, §7

RXF 393 = conditions: Homo sapiens; RXF 393, 10 μM; read-out: Growth percent
Description: as §1, §2, §3, §4, §5, §6, §7

SF-268 = conditions: Homo sapiens; SF-268, 10 μM; read-out: Growth percent
Description: as §1, §2, §3, §4, §5, §6, §7

SF-295 = conditions: Homo sapiens; SF-295, 10 μM; read-out: Growth percent
Description: as §1, §2, §3, §4, §5, §6, §7

SK-MEL-2 = conditions: Homo sapiens; SK-MEL-2, 10 μM; read-out: Growth percent
Description: as §1, §2, §3, §4, §5, §6, §7

SN12C = conditions: Homo sapiens, read-out: Growth percent
Description: as §1, §2, §3, §4, §5, §6, §7

SNB-19 = conditions: Homo sapiens; SNB-19, 10 μM; read-out: Growth percent
Description: as §1, §2, §3, §4, §5, §6, §7

SNB-75 = conditions: Homo sapiens; SNB-75, 10 μM; read-out: Growth percent
Description: as §1, §2, §3, §4, §5, §6, §7

SW-620 = conditions: Homo sapiens; SW-620, 10 μM; read-out: Growth percent
Description: as §1, §2, §3, §4, §5, §6, §7

| SMILES | activity at 10 µM (A549/ATCC) | activity at 10 µM (CCRF-CEM) | activity at 10 µM (DU-145) | activity at 10 µM (EKVX) | activity at 10 µM (HCC-2998) | activity at 10 µM (HCT-116) | activity at 10 µM (HL-60(TB)) | activity at 10 µM (HS 578T) | activity at 10 µM (LOX IMVI) | activity at 10 µM (MDA-MB-231/ATCC) | activity at 10 µM (MDA-MB-435) | activity at 10 µM (NCI-H322M) | activity at 10 µM (NCI/ADR-RES) | activity at 10 µM (OVCAR-5) | activity at 10 µM (RXF 393) | activity at 10 µM (SF-268) | activity at 10 µM (SF-295) | activity at 10 µM (SK-MEL-2) | activity at 10 µM (SN12C) | activity at 10 µM (SNB-19) | further results |
| --- | --- | --- | --- | --- | --- | --- | --- | --- | --- | --- | --- | --- | --- | --- | --- | --- | --- | --- | --- | --- | --- |
| O=c1cc(-c2ccccc2)oc2cc(OCCCC[P+](c3ccccc3)(c3ccccc3)c3ccccn3)cc(O)c12 [3h] | -43.5% | -20.7% | -95.3% | -93.1% | -88.5% | -61.6% | 0.68% | -35.8% | -84.1% | -94.3% | -80.8% | -94.5% | -41.3% | -93.4% | -80.5% | -67.6% | -92.7% | -95.4% | -91.4% | -91.6% | activity at 10 µM (SNB-75): -47.3%; activity at 10 µM (SW-620): -88.3% |
| O=c1cc(-c2ccccc2)oc2cc(O)cc(O)c12 [compound 2, 5,7-dihydroxyflavone, reference compound] | 98.5% | 102% | 92% | 89.3% | 103% | 82.7% | 116% | 92.5% | 85.1% | 82.6% | 99.5% | 98.3% | 92.8% | 99.1% | 91.2% | 102% | 99.9% | 110% | 85.8% | 86% | activity at 10 µM (SNB-75): 89%; activity at 10 µM (SW-620): 102% |
